Laboratory results taken from PubChem BioAssay (NCI).
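These data come from cells grown in 96-well plates and exposed to compound for 48 hours at five concentrations. GI50 marks 50% less growth. TGI: total growth inhibition.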

Columns and labels:
Test in all cases: NCI tumour cell line growth inhibition, 48 h
MCF7 breast = test system: MCF7 breast
LOX IMVI melanoma = test system: LOX IMVI melanoma
SF-539 CNS = test system: SF-539 CNS
786-0 renal = test system: 786-0 renal
A549 NSCLC = test system: A549 NSCLC
NCI-H460 lung = test system: NCI-H460 lung
SNB-75 CNS = test system: SNB-75 CNS
HL-60(TB) leukemia = test system: HL-60(TB) leukemia
SW-620 colon = test system: SW-620 colon
NCI-H23 lung = test system: NCI-H23 lung
HOP-92 NSCLC = test system: HOP-92 NSCLC
PC-3 prostate = test system: PC-3 prostate
EKVX NSCLC = test system: EKVX NSCLC
SK-OV-3 ovarian = test system: SK-OV-3 ovarian
SN12C renal = test system: SN12C renal
SK-MEL-5 melanoma = test system: SK-MEL-5 melanoma
UO-31 renal = test system: UO-31 renal
BT-549 breast = test system: BT-549 breast
NCI-H522 lung = test system: NCI-H522 lung
SK-MEL-28 melanoma = test system: SK-MEL-28 melanoma
OVCAR-3 ovarian = test system: OVCAR-3 ovarian
NCI-H226 lung = test system: NCI-H226 lung
K-562 leukemia = test system: K-562 leukemia
OVCAR-5 ovarian = test system: OVCAR-5 ovarian
CAKI-1 renal = test system: CAKI-1 renal
NCI/ADR-RES ovarian = test system: NCI/ADR-RES ovarian
U251 CNS = test system: U251 CNS
SK-MEL-2 melanoma = test system: SK-MEL-2 melanoma
HT29 colon = test system: HT29 colon
RXF 393 renal = test system: RXF 393 renal
OVCAR-4 ovarian = test system: OVCAR-4 ovarian
OVCAR-8 ovarian = test system: OVCAR-8 ovarian
UACC-257 melanoma = test system: UACC-257 melanoma
RPMI-8226 leukemia = test system: RPMI-8226 leukemia
HCC-2998 colon = test system: HCC-2998 colon
SNB-19 CNS = test system: SNB-19 CNS
T-47D breast = test system: T-47D breast
TK-10 renal = test system: TK-10 renal
CCRF-CEM leukemia = test system: CCRF-CEM leukemia
HCT-15 colon = test system: HCT-15 colon
MOLT-4 leukemia = test system: MOLT-4 leukemia
SR leukemia = test system: SR leukemia
COLO 205 colon = test system: COLO 205 colon
MALME-3M melanoma = test system: MALME-3M melanoma
SF-295 CNS = test system: SF-295 CNS
M14 melanoma = test system: M14 melanoma
UACC-62 melanoma = test system: UACC-62 melanoma
HCT-116 colon = test system: HCT-116 colon
MDA-MB-231 breast = test system: MDA-MB-231 breast
HS 578T breast = test system: HS 578T breast
HOP-62 NSCLC = test system: HOP-62 NSCLC
MDA-MB-435 = test system: MDA-MB-435
SF-268 CNS = test system: SF-268 CNS
DU-145 prostate = test system: DU-145 prostate
KM12 colon = test system: KM12 colon
A498 renal = test system: A498 renal

CN1CCN(Cc2ccc(NC(=O)c3cncc(C#Cc4cnc(N)c5cccnc45)c3)cc2C(F)(F)F)CC1
GI50 (MCF7 breast): 690 nM
TGI (MCF7 breast): > 50000 nM
GI50 (LOX IMVI melanoma): 159 nM
TGI (LOX IMVI melanoma): 686 nM
GI50 (SF-539 CNS): 288 nM
TGI (SF-539 CNS): 1780 nM
GI50 (786-0 renal): 1260 nM
TGI (786-0 renal): > 50000 nM
GI50 (A549 NSCLC): 1350 nM
TGI (A549 NSCLC): > 50000 nM
GI50 (NCI-H460 lung): 272 nM
TGI (NCI-H460 lung): > 50000 nM
GI50 (SNB-75 CNS): 469 nM
TGI (SNB-75 CNS): > 12000 nM
GI50 (HL-60(TB) leukemia): 223 nM
TGI (HL-60(TB) leukemia): 1170 nM
GI50 (SW-620 colon): 262 nM
TGI (SW-620 colon): 2900 nM
GI50 (NCI-H23 lung): 496 nM
TGI (NCI-H23 lung): > 50000 nM
GI50 (HOP-92 NSCLC): 148 nM
TGI (HOP-92 NSCLC): 1160 nM
GI50 (PC-3 prostate): 665 nM
TGI (PC-3 prostate): > 50000 nM
GI50 (EKVX NSCLC): 1360 nM
TGI (EKVX NSCLC): > 50000 nM
GI50 (SK-OV-3 ovarian): 203 nM
TGI (SK-OV-3 ovarian): > 50000 nM
GI50 (SN12C renal): 311 nM
TGI (SN12C renal): > 50000 nM
GI50 (SK-MEL-5 melanoma): 571 nM
TGI (SK-MEL-5 melanoma): 2130 nM
GI50 (UO-31 renal): 1100 nM
TGI (UO-31 renal): 2780 nM
GI50 (BT-549 breast): 1480 nM
TGI (BT-549 breast): > 50000 nM
GI50 (NCI-H522 lung): 290 nM
TGI (NCI-H522 lung): > 50000 nM
GI50 (SK-MEL-28 melanoma): 176 nM
TGI (SK-MEL-28 melanoma): 1850 nM
GI50 (OVCAR-3 ovarian): 589 nM
TGI (OVCAR-3 ovarian): > 50000 nM
GI50 (NCI-H226 lung): 191 nM
TGI (NCI-H226 lung): > 50000 nM
GI50 (K-562 leukemia): 5 nM
TGI (K-562 leukemia): > 50000 nM
GI50 (OVCAR-5 ovarian): 537 nM
TGI (OVCAR-5 ovarian): > 50000 nM
TGI (CAKI-1 renal): > 50000 nM
GI50 (NCI/ADR-RES ovarian): > 50000 nM
TGI (NCI/ADR-RES ovarian): > 50000 nM
GI50 (U251 CNS): 233 nM
TGI (U251 CNS): > 31500 nM
GI50 (SK-MEL-2 melanoma): 120 nM
TGI (SK-MEL-2 melanoma): 332 nM
GI50 (HT29 colon): 157 nM
TGI (HT29 colon): > 50000 nM
GI50 (RXF 393 renal): 255 nM
TGI (RXF 393 renal): 2510 nM
GI50 (OVCAR-4 ovarian): 149 nM
TGI (OVCAR-4 ovarian): > 50000 nM
GI50 (OVCAR-8 ovarian): 397 nM
TGI (OVCAR-8 ovarian): > 50000 nM
GI50 (UACC-257 melanoma): 273 nM
TGI (UACC-257 melanoma): > 50000 nM
GI50 (RPMI-8226 leukemia): 603 nM
TGI (RPMI-8226 leukemia): > 50000 nM
GI50 (HCC-2998 colon): 484 nM
TGI (HCC-2998 colon): > 50000 nM
GI50 (SNB-19 CNS): 2050 nM
TGI (SNB-19 CNS): > 50000 nM
GI50 (T-47D breast): 360 nM
TGI (T-47D breast): > 50000 nM
GI50 (TK-10 renal): 1330 nM
TGI (TK-10 renal): > 50000 nM
GI50 (CCRF-CEM leukemia): 234 nM
TGI (CCRF-CEM leukemia): > 50000 nM
GI50 (HCT-15 colon): 1850 nM
TGI (HCT-15 colon): > 50000 nM
GI50 (MOLT-4 leukemia): 214 nM
TGI (MOLT-4 leukemia): > 50000 nM
GI50 (SR leukemia): 293 nM
TGI (SR leukemia): > 50000 nM
GI50 (COLO 205 colon): 95.6 nM
TGI (COLO 205 colon): 1120 nM
GI50 (MALME-3M melanoma): 55.8 nM
TGI (MALME-3M melanoma): 273 nM
GI50 (SF-295 CNS): 2070 nM
TGI (SF-295 CNS): > 50000 nM
GI50 (M14 melanoma): 143 nM
TGI (M14 melanoma): 604 nM
GI50 (UACC-62 melanoma): 182 nM
TGI (UACC-62 melanoma): 956 nM
GI50 (HCT-116 colon): 224 nM
TGI (HCT-116 colon): 6600 nM
GI50 (MDA-MB-231 breast): 137 nM
TGI (MDA-MB-231 breast): 975 nM
GI50 (HS 578T breast): 196 nM
TGI (HS 578T breast): 1610 nM
GI50 (HOP-62 NSCLC): 498 nM
TGI (HOP-62 NSCLC): > 19100 nM
GI50 (MDA-MB-435): 150 nM
GI50 (SF-268 CNS): 466 nM
TGI (SF-268 CNS): > 50000 nM
GI50 (DU-145 prostate): 309 nM
TGI (DU-145 prostate): > 50000 nM
GI50 (KM12 colon): 69 nM
TGI (KM12 colon): > 50000 nM
GI50 (A498 renal): 112 nM
TGI (A498 renal): 723 nM
